Numbers after ± are expanded uncertainties. Values belong to the molecule of their own block, whether it stands above or below them.
Assay: excess molar enthalpy (molar enthalpy of mixing); xn = mol fraction of the nth substance listed
Conditions: 298.15 K, 101 kPa, Liquid, DSC [Setaram C80]

excess molar enthalpy (x1 = 0.0168): -0.00716 ± 0.00526 kcal/mol
excess molar enthalpy (x1 = 0.1988): -0.0907 ± 0.00406 kcal/mol
excess molar enthalpy (x1 = 0.3994): -0.131 ± 0.00263 kcal/mol
excess molar enthalpy (x1 = 0.608): -0.121 ± 0.00311 kcal/mol
excess molar enthalpy (x1 = 0.7783): -0.0568 ± 0.00454 kcal/mol
SMILES: COc1ccccc1O [2-methoxyphenol] + CCO

SMILES: Cc1ccccc1O [2-methylphenol] + CCO
excess molar enthalpy (x1 = 0.1954): -0.266 ± 0.00932 kcal/mol
excess molar enthalpy (x1 = 0.4127): -0.387 ± 0.00837 kcal/mol
excess molar enthalpy (x1 = 0.6007): -0.395 ± 0.00884 kcal/mol
excess molar enthalpy (x1 = 0.8013): -0.226 ± 0.0112 kcal/mol

excess molar enthalpy (x1 = 0.2003): -0.189 ± 0.00574 kcal/mol
excess molar enthalpy (x1 = 0.4097): -0.293 ± 0.00406 kcal/mol
excess molar enthalpy (x1 = 0.5861): -0.274 ± 0.00478 kcal/mol
excess molar enthalpy (x1 = 0.7875): -0.164 ± 0.00598 kcal/mol
SMILES: Cc1cccc(O)c1 [3-methylphenol] + CCO

Source: the NIST ThermoML archive (doi:10.1016/j.fluid.2017.09.008)
